Assay results taken from patent US20240246918A1, “COMPOUNDS AND COMPOSITIONS AS EIF4E INHIBITORS AND THE USES THEREOF” (Ribometrix, Inc., priority 2022, published 2024).

Assays:
[1] = system: COLO 205 colorectal tumor cells; assay: Tumor cell viability inhibition assay (CellTiter-Glo 2.0, 72 hours); assay type: cell-based; details: COLO 205 cell viability
Procedure, shortened: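 COLO 205 cells (1500/well, RPMI-1640 + 10% FBS) exposed for 72 h to an 11-point, 4-fold dilution series; cellular ATP read by CellTiter-Glo 2.0 luminescence. Data normalized to DMSO and maximum-inhibition controls; IC50 from 4-parameter curve fit.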

[2] = target: T1, human eIF4E protein (Homo sapiens, UniProt P06730); assay: Biochemical competitive binding assay (TR-FRET competition, EDA-m7GDP-ATTO-647N probe); details: read-out: hEIF4E TR-FRET IC50
T1 construct: purchased Novus NBP-45314
T1 sequence (P06730 whole entry): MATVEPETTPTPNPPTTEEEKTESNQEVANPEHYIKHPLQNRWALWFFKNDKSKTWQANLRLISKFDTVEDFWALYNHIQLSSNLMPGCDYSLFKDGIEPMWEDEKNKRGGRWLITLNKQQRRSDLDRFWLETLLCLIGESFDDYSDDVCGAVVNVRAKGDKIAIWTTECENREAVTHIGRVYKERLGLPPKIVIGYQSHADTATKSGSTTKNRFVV
Procedure, shortened: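 His-tagged human eIF4E (4 nM) was preincubated with Eu-anti-His antibody (2.5 nM) and added to compound (11-point, 4-fold dilutions) for 15 min. Then 5 nM EDA-m7GDP-ATTO-647N was added for 15 min, in HEPES pH 7.5, 100 mM KCl. The 665/620 TR-FRET ratio was normalized to controls, and IC50 was taken from 4-parameter fits.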

Row | IC50 ([1]; Homo sapiens, COLO 205, 72 h) [µM] | IC50 [2] [µM] | IC50 [1] [µM] | Compound
1 | 5 to 20 | < 0.1 | – | COC1CCN([C@H]2CCc3nc(C)n(CCOc4ccc(Cl)cc4-c4cc(C)nc5c(C(=O)O)csc45)c(=O)c3[C@H]2C)CC1 (stereo in doubt) [Compound 102, 7-(5-chloro-2-(2-(6-(4-methoxypiperidin-1-yl)-2,5-dimethyl-4-oxo-5,6,7,8-tetrahydroquinazolin-3(4H)-yl)ethoxy)phenyl)-5-methylthieno[3,2-b]pyridine-3-carboxylic acid]
2 | < 5 | < 0.1 | – | Cc1cc(-c2cc(Cl)ccc2OCCn2c(C)nc3c(c2=O)C[C@H](N2CCC[C@@]4(CN(CC(F)(F)F)CC4(F)F)C2)CC3)c2scc(C(=O)O)c2n1 (single isomer, unassigned) [Compound 513]
3 | < 5 | < 0.1 | – | Cc1cc(-c2cc(Cl)ccc2OCCn2c(C)nc3c(c2=O)C[C@@H](N2CCC(c4ncccc4F)CC2)CC3)c2scc(C(=O)O)c2n1 (single isomer, unassigned) [Compound 445]
4 | < 5 | < 0.1 | – | Cc1cc(-c2cc(Cl)ccc2OCCn2c(C)nc3c(c2=O)C[C@@H](N2CCC(c4cnn(C)c4)CC2)CC3)c2scc(C(=O)O)c2n1 (single isomer, unassigned) [Compound 427]
5 | < 5 | < 0.1 | – | Cc1cc(-c2cc(Cl)ccc2OCCn2c(C)nc3c(c2=O)CC(N2CCC(OC(F)(F)F)CC2)CC32CC2)c2scc(C(=O)NS(C)(=O)=O)c2n1 (single isomer, unassigned) [Compound 579, 7-(5-chloro-2-(2-(2′-methyl-4′-oxo-6′-(4-(trifluoromethoxy)piperidin-1-yl)-6′,7′-dihydro-4′H-spiro[cyclopropane-1,8′-quinazolin]-3′(5′H)-yl)ethoxy)phenyl)-5-methyl-N-(methylsulfonyl)thieno[3,2-b]pyridine-3-carboxamide]
6 | < 5 | < 0.1 | – | Cc1cc(-c2cc(Cl)ccc2OCCn2c(C)nc3c(c2=O)C[C@H](N2CCC(COC(F)(F)F)CC2)CC3)c2scc(C(=O)O)c2n1 (single isomer, unassigned) [Compound 452]
7 | 5 to 20 | < 0.1 | – | Cc1cc(-c2cc(Cl)ccc2OCCn2c(C)nc3c(c2=O)C[C@H](N2CC[C@@H](OC(F)(F)F)C(F)(F)C2)CC3)c2scc(C(=O)O)c2n1 (single isomer, unassigned) [Compound 403]
8 | < 5 | < 0.1 | – | Cc1cc(-c2cc(Cl)ccc2OCCn2c(C)nc3c(c2=O)C[C@@H](N2CCC[C@H](OC(F)(F)F)C2)CC3)c2scc(C(=O)O)c2n1 (single isomer, unassigned) [Compound 472]
9 | 5 to 20 | < 0.1 | – | Cc1cc(-c2cc(Cl)ccc2OCCn2c(C)nc3c(c2=O)C[C@@H](NC24CC5CC(CC(C5)C2)C4)CC3)c2scc(C(=O)O)c2n1 (single isomer, unassigned) [Compound 413]
10 | < 5 | < 0.1 | – | Cc1cc(-c2cc(Cl)ccc2OCCn2c(C)nc3c(c2=O)C[C@H](N2CCC(c4ncn(C)n4)CC2)CC3)c2scc(C(=O)O)c2n1 (single isomer, unassigned) [Compound 462]
11 | 5 to 20 | < 0.1 | – | Cc1cc(-c2cc(Cl)ccc2OCCn2c(C)nc3c(c2=O)C[C@@H](N2CCC4(CC2)COCCO4)CC3)c2scc(C(=O)O)c2n1 (single isomer, unassigned) [Compound 425]
12 | – | 0.5 to 5 | > 20 | Cc1cc(-c2cc(Cl)c(=O)[nH]c2OCCn2c(C)nc3c(c2=O)CC(N(C)CC2CC(F)(F)C2)CC3)c2scc(C(=O)O)c2n1 (single isomer, unassigned) [Compound 238]
13 | < 5 | < 0.1 | – | Cc1cc(-c2cc(Cl)ccc2OCCn2c(C)nc3c(c2=O)C[C@H](N2CCC[C@@]4(C2)CC4(F)F)CC32CC2)c2scc(C(=O)O)c2n1 (single isomer, unassigned) [Compound 580]
14 | < 5 | < 0.1 | – | Cc1cc(-c2cc(Cl)ccc2OCCn2c(C)nc3c(c2=O)C[C@H](N2CCC4(CC2)CC(F)(F)CO4)CC3)c2scc(C(=O)O)c2n1 (single isomer, unassigned) [Compound 489]
15 | < 5 | < 0.1 | – | CO[C@H]1CCN([C@H]2CCc3nc(C)n(CCOc4ccc(Cl)cc4-c4cc(C)nc5c(C(=O)O)csc45)c(=O)c3C2)CC1(C)C (single isomer, unassigned) [Compound 378]
16 | < 5 | < 0.1 | – | Cc1cc(-c2cc(Cl)ccc2OCCn2c(C)nc3c(c2=O)C[C@@H](N2CCC(c4noc5ccc(F)cc45)CC2)CC3)c2scc(C(=O)O)c2n1 (single isomer, unassigned) [Compound 449]
17 | > 20 | 0.5 to 5 | – | Cc1cc(-c2cc(Cl)ccc2OCCn2c(C(F)(F)F)nc3c(c2=O)CC(N2CCC(OC(F)(F)F)CC2)CC3)c2scc(C(=O)O)c2n1 (single isomer, unassigned) [Compound 627]

Row | IC50 ([1]; Homo sapiens, COLO 205, 72 h) [µM] | IC50 [2] [µM] | IC50 [1] [µM] | Compound
18 | < 5 | < 0.1 | – | Cc1cc(-c2cc(Cl)ccc2OCCn2c(C)nc3c(c2=O)C[C@@H](N2CC[C@H](OC(F)(F)F)C(C)(C)C2)CC3)c2scc(C(=O)O)c2n1 (single isomer, unassigned) [Compound 392]
19 | < 5 | < 0.1 | – | Cc1cc(-c2cc(Cl)ccc2OCCn2c(C)nc3c(c2=O)C[C@@H](N2CC4CCC(C2)C4OC(F)(F)F)CC3)c2scc(C(=O)O)c2n1 (single isomer, unassigned) [Compound 495]
20 | < 5 | < 0.1 | – | Cc1cc(-c2cc(Cl)ccc2OCCn2c(C)nc3c(c2=O)CC(N2CCC(c4cccc(C(F)(F)F)c4)CC2)CC3)c2scc(C(=O)O)c2n1 (stereo not drawn) [Compound 127]
21 | < 5 | < 0.1 | – | Cc1cc(-c2cc(Cl)ccc2OCCn2c(C)nc3c(c2=O)C[C@@](C)(N2CCC[C@]4(C2)CC4(F)F)CC3)c2scc(C(=O)O)c2n1 (single isomer, unassigned) [Compound 539]
22 | 5 to 20 | < 0.1 | – | Cc1cc(-c2cc(Cl)ccc2OCCn2c(C)nc3c(c2=O)C[C@@H](N2CCC[C@]4(C2)CC4(F)F)CC3(C)C)c2scc(C(=O)O)c2n1 (single isomer, unassigned) [Compound 440]
23 | 5 to 20 | < 0.1 | – | Cc1cc(-c2cc(Cl)ccc2OCCn2c(C)nc3c(c2=O)C[C@H](N2CCCC[C@H]2C(F)(F)F)CC32CC2)c2scc(C(=O)O)c2n1 (single isomer, unassigned) [Compound 633]
24 | > 20 | 0.1 to 0.5 | – | Cc1cc(-c2cc(Cl)ccc2OCCn2c(C)nc3c(c2=O)C[C@@H](N2CCCC[C@H]2c2nccs2)CC3)c2scc(C(=O)O)c2n1 (single isomer, unassigned) [Compound 548]
25 | < 5 | < 0.1 | – | Cc1cc(-c2cc(Cl)ccc2OCCn2c(C)nc3c(c2=O)C[C@@H](N2C[C@H]4CC[C@@H]2CC4OC(F)(F)F)CC32CC2)c2scc(C(=O)O)c2n1 (single isomer, unassigned) [Compound 607]
26 | < 5 | < 0.1 | – | Cc1cc(-c2cc(Cl)ccc2OCCn2c(C)nc3c(c2=O)C[C@@H](N2CCC(COC(F)(F)F)CC2)CC3)c2scc(C(=O)O)c2n1 (single isomer, unassigned) [Compound 407]
27 | > 20 | 0.1 to 0.5 | – | Cc1cc(-c2cc(Cl)ccc2OCCn2c(C)nc3c(c2=O)C[C@@H](N2CCCC[C@H]2c2cccc(C(F)(F)F)c2)CC3)c2scc(C(=O)O)c2n1 (single isomer, unassigned) [Compound 589]
28 | > 20 | < 0.1 | – | Cc1cc(-c2cc(Cl)ccc2OCCn2c(C)nc3c(c2=O)C[C@@H](N2CCC[C@@H](c4ccn(C)n4)C2)CC3)c2scc(C(=O)O)c2n1 (single isomer, unassigned) [Compound 446]
29 | < 5 | < 0.1 | – | Cc1cc(-c2cc(Cl)ccc2OCCn2c(C)nc3c(c2=O)C[C@@H](N2CCC[C@H](C(F)F)C2)CC32CC2)c2scc(C(=O)O)c2n1 (single isomer, unassigned) [Compound 610]
30 | < 5 | < 0.1 | – | Cc1cc(-c2cc(Cl)ccc2OCCn2c(C)nc3c(c2=O)C[C@@H](N2CCC[C@@]4(C2)CC4(F)F)CC32CC2)c2scc(C(=O)O)c2n1 (single isomer, unassigned) [Compound 582]
31 | < 5 | < 0.1 | – | Cc1cc(-c2cc(Cl)ccc2OCCn2c(C)nc3c(c2=O)C[C@H](N2CC[C@@H](OC(F)(F)F)C2)CC3)c2scc(C(=O)O)c2n1 (single isomer, unassigned) [Compound 387]
32 | 5 to 20 | < 0.1 | – | Cc1cc(-c2cc(Cl)ccc2OCCn2c(C)nc3c(c2=O)C[C@H](N2CCC(n4ccnn4)CC2)CC3)c2scc(C(=O)O)c2n1 (single isomer, unassigned) [Compound 422]
33 | < 5 | < 0.1 | – | Cc1cc(-c2cc(Cl)ccc2OCCn2c(C)nc3c(c2=O)C[C@H](N2CCC[C@@H](OC(F)(F)F)C2)CC3)c2scc(C(=O)O)c2n1 (single isomer, unassigned) [Compound 471]

Row | Compound | IC50 ([1]; Homo sapiens, COLO 205, 72 h) [µM] | IC50 [2] [µM] | IC50 [1] [µM]
34 | Cc1cc(-c2cc(Cl)ccc2OCCn2c(C)nc3c(c2=O)C[C@H](N2[C@@H]4CC[C@H]2C[C@H](OC(F)(F)F)C4)CC3)c2scc(C(=O)O)c2n1 (single isomer, unassigned) [Compound 399] | < 5 | < 0.1 | –
35 | COC1(C(F)(F)F)CC2CCC(C1)N2[C@H]1CCc2nc(C)n(CCOc3ccc(Cl)cc3-c3cc(C)nc4c(C(=O)O)csc34)c(=O)c2C1 (single isomer, unassigned) [Compound 503] | 5 to 20 | 0.1 to 0.5 | –
36 | Cc1cc(-c2cc(Cl)ccc2OCCn2c(C)nc3c(c2=O)C[C@@H](N2[C@@H]4CC[C@H]2C[C@@H](OC(F)(F)F)C4)CC3)c2scc(C(=O)O)c2n1 (single isomer, unassigned) [Compound 396] | < 5 | < 0.1 | –
